This note sets out measurements from article PMC6364417, “Kinase inhibitor library screening identifies synergistic drug combinations effective in sensitive and resistant melanoma cells” (Journal of Experimental & Clinical Cancer Research : CR, 2019).

Common to all, as to test: Kinase inhibitor library screening, PrestoBlue cell viability, 1 or 10 μM, 72 h
The subject of data set [1] is A375 cells (parental).
Data set [2] relates to A375-XP cells (Vemurafenib-resistant). The note with it: for cell viability (kinase inhibitor library screening) / cell viability, A375 XP, 1μΜ / cell viability, A375 XP, 10μΜ: A375 XP.
Data set [3] concerns 501Mel cells (parental). The note with it: for cell viability (kinase inhibitor library screening) / cell viability, 501Mel Parental, 1μΜ / cell viability, 501Mel Parental, 10μΜ: 501Mel Parental. In outline:
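Each compound was applied to parental melanoma cells and to derivatives made resistant to Vemurafenib or Dabrafenib. After treatment, viability was read with PrestoBlue on a plate reader and expressed as % of untreated cells, with each line run at least in duplicate.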

In data set [4] the test system is IGR37-XP cells (Vemurafenib-resistant). The note with it: for cell viability (kinase inhibitor library screening) / cell viability, IGR37 XP, 10μΜ / cell viability, IGR37 XP, 1μΜ: IGR37 XP.
In data set [5] the test system is A375-GP cells (Dabrafenib-resistant). The note with it: for cell viability (kinase inhibitor library screening) / cell viability, A375 GP, 1μΜ / cell viability, A375 GP, 10μΜ: A375 GP.
Data set [6] has as its system 501Mel-GP cells (Dabrafenib-resistant).
Data set [7] deals with 501Mel-XP cells (Vemurafenib-resistant). Particulars: for cell viability (kinase inhibitor library screening) / cell viability, 501Mel XP, 1μΜ / cell viability, 501Mel XP, 10μΜ: 501Mel XP.
Data set [8] relates to IGR37 cells (parental).
Data set [9] deals with IGR37-GP cells (Dabrafenib-resistant). The note with it: for cell viability (kinase inhibitor library screening) / cell viability, IGR37 GP, 10μΜ / cell viability, IGR37 GP, 1μΜ: IGR37 GP.
[10] abbreviates: A375 Parental, 10μΜ, 72 h, in %.
[11] abbreviates: IGR37 Parental, 1μΜ, 72 h, in %.

As to `CN1CCN(C2CCN(C(=O)Nc3cc(Oc4ccc(NC(=O)C5(C(=O)Nc6ccc(F)cc6)CC5)c(F)c4)ccn3)CC2)CC1` [Golvatinib (E7050)], the “cell viability (kinase inhibitor library screening)” value in data set [1] (A375 Parental, 10μΜ, 72 h) is recorded as 70.5%; in [1] (A375 Parental, 1μΜ, 72 h) it was 93.1%; in [2] (1μΜ, 72 h), 99.6%; in data set [2] (10μΜ, 72 h) it was 65.0%; in [3] (1μΜ, 72 h) it was 96.5%; in data set [3] (10μΜ, 72 h), 0.148%. Besides, the “cell viability (kinase inhibitor library screening)” value in data set [4] (1μΜ, 72 h) is 95.2%; in data set [4] (10μΜ, 72 h), 10.4%; in [5] (1μΜ, 72 h), 103.0%; in data set [5] (10μΜ, 72 h), 53.0%; in data set [6] (501Mel GP, 1μΜ, 72 h) it was 81.2%; in data set [6] (501Mel GP, 10μΜ, 72 h), -0.26%. In addition, the “cell viability (kinase inhibitor library screening)” value in data set [7] (1μΜ, 72 h) was 66.2%; in [7] (10μΜ, 72 h), -0.363%; in data set [8] (IGR37 Parental, 1μΜ, 72 h), 99.0%; in data set [8] (IGR37 Parental, 10μΜ, 72 h), 18.3%; in data set [9] (1μΜ, 72 h) it was 92.1%; in [9] (10μΜ, 72 h) it was 49.6%.
As for `N#CC[C@H](C1CCCC1)n1cc(-c2ncnc3[nH]ccc23)cn1` [Ruxolitinib (INCB018424)], the viability at 1 µM in [1] (Homo sapiens, A-375, 72 h, read-out: cell viability, A375 Parental, 1μΜ) came out at 102%; in data set [2] (Homo sapiens, A-375, 72 h, read-out: cell viability, A375 XP, 1μΜ), 102%; in data set [3] (Homo sapiens, 72 h, read-out: cell viability, 501Mel Parental, 1μΜ), 95.6%; in data set [4] (Homo sapiens, IGR-37, 72 h, read-out: cell viability, IGR37 XP, 1μΜ), 103%; in [5] (Homo sapiens, A-375, 72 h, read-out: cell viability, A375 GP, 1μΜ), 95.8%; in data set [6] (Homo sapiens, 72 h, read-out: cell viability, 501Mel GP, 1μΜ) it was 103%. Moreover, the viability at 1 µM was found to be 93.9% in data set [7] (Homo sapiens, 72 h, read-out: cell viability, 501Mel XP, 1μΜ); 97% in data set [8] (Homo sapiens, IGR-37, 72 h, read-out: cell viability, IGR37 Parental, 1μΜ); 93.2% in data set [9] (Homo sapiens, IGR-37, 72 h, read-out: cell viability, IGR37 GP, 1μΜ). For the same compound, the viability at 10 µM turned out to be 92.9% in data set [1] (Homo sapiens, A-375, 72 h, read-out: cell viability, A375 Parental, 10μΜ); 106% in data set [2] (Homo sapiens, A-375, 72 h, read-out: cell viability, A375 XP, 10μΜ); 96.5% in [3] (Homo sapiens, 72 h, read-out: cell viability, 501Mel Parental, 10μΜ); 76.6% in data set [4] (Homo sapiens, IGR-37, 72 h, read-out: cell viability, IGR37 XP, 10μΜ); 88.9% in data set [5] (Homo sapiens, A-375, 72 h, read-out: cell viability, A375 GP, 10μΜ); 87.9% in data set [6] (Homo sapiens, 72 h, read-out: cell viability, 501Mel GP, 10μΜ). In addition, the viability at 10 µM was 86.6% in data set [7] (Homo sapiens, 72 h, read-out: cell viability, 501Mel XP, 10μΜ); 96.3% in data set [8] (Homo sapiens, IGR-37, 72 h, read-out: cell viability, IGR37 Parental, 10μΜ); 88.6% in data set [9] (Homo sapiens, IGR-37, 72 h, read-out: cell viability, IGR37 GP, 10μΜ).
Turning to `CCn1c(-c2nonc2N)nc2c(C#CC(C)(C)O)ncc(OC[C@H]3CCCNC3)c21` [GSK690693], the “cell viability (kinase inhibitor library screening)” value in data set [1] (A375 Parental, 10μΜ, 72 h) is reported as 99.2%; in [2] (1μΜ, 72 h), 96.1%; in data set [2] (10μΜ, 72 h) it was 87.9%; in data set [3] (1μΜ, 72 h), 87.0%; in data set [3] (10μΜ, 72 h), 43.2%; in [4] (1μΜ, 72 h), 94.0%. Besides, the “cell viability (kinase inhibitor library screening)” value was found to be 18.7% in [4] (10μΜ, 72 h); 99.1% in [5] (1μΜ, 72 h); 92.8% in [5] (10μΜ, 72 h); 87.1% in data set [6] (501Mel GP, 1μΜ, 72 h); 33.9% in [6] (501Mel GP, 10μΜ, 72 h); 66.4% in [7] (1μΜ, 72 h). The “cell viability (kinase inhibitor library screening)” value is on record as 17.0% in [7] (10μΜ, 72 h); 104.5% in data set [8] (IGR37 Parental, 1μΜ, 72 h); 68.7% in data set [8] (IGR37 Parental, 10μΜ, 72 h); 93.2% in data set [9] (1μΜ, 72 h); 65.9% in data set [9] (10μΜ, 72 h).
As to `CC(=O)Nc1cccc(-n2c(=O)n(C3CC3)c(=O)c3c(Nc4ccc(I)cc4F)n(C)c(=O)c(C)c32)c1` [GSK1120212 (Trametinib)], the “cell viability, A375 Parental, 1μΜ” value in data set [1] (A375 Parental, 1μΜ, 72 h, in %) came out at 21.7. The “cell viability, A375 Parental, 10μΜ” value in data set [1] (setting [10]) was 21.8. Also, the “cell viability, A375 XP, 1μΜ” value in data set [2] (1μΜ, 72 h, in %) is 14.9. Moreover, the “cell viability, A375 XP, 10μΜ” value in [2] (10μΜ, 72 h, in %) was found to be 14.6. Further, the “cell viability, 501Mel Parental, 1μΜ” value in data set [3] (1μΜ, 72 h, in %) is on record as 55.4. Moreover, the “cell viability, 501Mel Parental, 10μΜ” value in data set [3] (10μΜ, 72 h, in %) stood at 64.9. For the same compound, the cell viability, IGR37 XP, 10μΜ in data set [4] (10μΜ, 72 h) is 22.1%. Further, the “cell viability, IGR37 XP, 1μΜ” value in data set [4] (1μΜ, 72 h, in %) came to 38.3. Further, the “cell viability, A375 GP, 1μΜ” value in data set [5] (1μΜ, 72 h, in %) is 18.8. For the same compound, in data set [5] (10μΜ, 72 h, in %), the “cell viability, A375 GP, 10μΜ” value was 16.2. For the same compound, the “cell viability, 501Mel GP, 1μΜ” value in [6] (501Mel GP, 1μΜ, 72 h, in %) was found to be 90.4. Besides, the “cell viability, 501Mel GP, 10μΜ” value in data set [6] (501Mel GP, 10μΜ, 72 h, in %) was determined as 77.4. In addition, the “cell viability, 501Mel XP, 1μΜ” value in [7] (1μΜ, 72 h, in %) is 75.6. For the same compound, in [7] (10μΜ, 72 h, in %), the “cell viability, 501Mel XP, 10μΜ” value came out at 62.1. Also, the “cell viability, IGR37 Parental, 1μΜ” value in data set [8] (setting [11]) came to 37.2. The “cell viability, IGR37 Parental, 10μΜ” value in data set [8] (IGR37 Parental, 10μΜ, 72 h, in %) was 36.1. This compound registered a cell viability, IGR37 GP, 10μΜ in data set [9] (10μΜ, 72 h) of 56.9%. Moreover, in [9] (1μΜ, 72 h, in %), the “cell viability, IGR37 GP, 1μΜ” value came to 89.3.
As to `COC(=O)c1ccc2c(c1)NC(=O)/C2=C(\Nc1ccc(N(C)C(=O)CN2CCN(C)CC2)cc1)c1ccccc1` [BIBF1120 (Vargatef)], the “cell viability (kinase inhibitor library screening)” value came to 104.6 in [1] (A375 Parental, 1μΜ, in %); 2.3 in data set [1] (A375 Parental, 10μΜ, in %); 103.7 in data set [2] (1μΜ, in %); 1.7 in data set [2] (10μΜ, in %); 103.8 in data set [3] (1μΜ, in %); 0.6 in [3] (10μΜ, in %). The “cell viability (kinase inhibitor library screening)” value in data set [4] (1μΜ, in %) is recorded as 100.3; in [4] (10μΜ, in %), 1.9; in data set [5] (10μΜ, in %), 1.1; in data set [6] (501Mel GP, 1μΜ, in %), 90.5; in [6] (501Mel GP, 10μΜ, in %) it was -0.1; in data set [7] (1μΜ, in %), 90.7. The “cell viability (kinase inhibitor library screening)” value is -0.28 in data set [7] (10μΜ, in %); 0.645 in data set [8] (IGR37 Parental, 10μΜ, in %); 97.0 in data set [9] (1μΜ, in %); 1.4 in data set [9] (10μΜ, in %).
On to `CN(C)Cc1cccc(N/C(=C2\C(=O)Nc3cc(C(=O)N(C)C)ccc32)c2ccccc2)c1` [BIX 02189], for which the “cell viability, A375 Parental, 10μΜ” value in [1] (setting [10]) is given as 86.5. Besides, in data set [2] (1μΜ, 72 h, in %), the “cell viability, A375 XP, 1μΜ” value was 99.2. Further, in data set [2] (10μΜ, 72 h, in %), the “cell viability, A375 XP, 10μΜ” value came out at 88.6. Besides, the “cell viability, 501Mel Parental, 1μΜ” value in data set [3] (1μΜ, 72 h, in %) stood at 89.4. The “cell viability, 501Mel Parental, 10μΜ” value in data set [3] (10μΜ, 72 h, in %) turned out to be 89.0. The cell viability, IGR37 XP, 10μΜ in data set [4] (10μΜ, 72 h) amounted to 54.9%. For the same compound, in data set [4] (1μΜ, 72 h, in %), the “cell viability, IGR37 XP, 1μΜ” value amounted to 96.6. Also, in data set [5] (1μΜ, 72 h, in %), the “cell viability, A375 GP, 1μΜ” value is listed as 99.5. Also, the “cell viability, A375 GP, 10μΜ” value in [5] (10μΜ, 72 h, in %) is reported as 79.8. Also, in [6] (501Mel GP, 10μΜ, 72 h, in %), the “cell viability, 501Mel GP, 10μΜ” value was 90.2. The “cell viability, 501Mel XP, 1μΜ” value in data set [7] (1μΜ, 72 h, in %) was found to be 98.8. The “cell viability, 501Mel XP, 10μΜ” value in data set [7] (10μΜ, 72 h, in %) was found to be 82.6. The “cell viability, IGR37 Parental, 1μΜ” value in data set [8] (setting [11]) is given as 100.1. The cell viability, IGR37 GP, 10μΜ in data set [9] (10μΜ, 72 h) came out at 85.5%. Also, the “cell viability, IGR37 GP, 1μΜ” value in data set [9] (1μΜ, 72 h, in %) turned out to be 92.6.

As usually defined, the viability is a read-out of living cells in per cent, often relative to untreated cells.
